# According to the supplement of paper PMC10307832:
# Legend:
# Assay in all cases: relative viability (nuclei count vs DMSO), 5 days (fraction); higher = more cells survive
# Bemcentinib + Trametinib = compound: Nc1nc(Nc2ccc3c(c2)CC[C@@H](N2CCCC2)CC3)nn1-c1cc2c(nn1)-c1ccccc1CCC2 [Bemcentinib] + CC(=O)Nc1cccc(-n2c(=O)n(C3CC3)c(=O)c3c(Nc4ccc(I)cc4F)n(C)c(=O)c(C)c32)c1 [Trametinib] (partner 0.02 µM)
# Outline: (§1)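 Lung cancer cell lines, seeded in 1536-well plates, were treated the following day by pin tool with a single drug or with five library-drug doses (not always all listed) in √10 steps on top of a fixed anchor-drug dose. Cells were fixed and nuclei stained in one step after 5 days, and nuclei were counted. Relative viability is the nuclei count for treated wells divided by that for vehicle wells, reported as medians of duplicate plates.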
# Bemcentinib + AZD7762 = compound: Nc1nc(Nc2ccc3c(c2)CC[C@@H](N2CCCC2)CC3)nn1-c1cc2c(nn1)-c1ccccc1CCC2 [Bemcentinib] + NC(=O)Nc1cc(-c2cccc(F)c2)sc1C(=O)N[C@H]1CCCNC1 [AZD7762] (partner 0.2 µM)
# Outline: as §1
# [1] = compound: Nc1nc(Nc2ccc3c(c2)CC[C@@H](N2CCCC2)CC3)nn1-c1cc2c(nn1)-c1ccccc1CCC2 [Bemcentinib] + CC(=O)c1c(C)c2cnc(Nc3ccc(N4CCNCC4)cn3)nc2n(C2CCCC2)c1=O [Palbociclib] (partner 0.5 µM)
# Outline: as §1
# [2] = compound: CC1=CC=C(C=C1)C(=O)CN2C3=C(CCCC3)SC2=N [Pifithrin_alpha] + CS(=O)(=O)N1CCN(Cc2cc3nc(-c4cccc5[nH]ncc45)nc(N4CCOCC4)c3s2)CC1 [Pictilisib] (partner 1 µM)
# Outline: as §1
Cell Line,relative viability (Bemcentinib + Trametinib; first compound 0.04 µM),relative viability (Bemcentinib + Trametinib; first compound 0.1265 µM),relative viability (Bemcentinib + Trametinib; first compound 0.4 µM),relative viability (Bemcentinib + Trametinib; first compound 1.265 µM),relative viability (Bemcentinib + Trametinib; first compound 4 µM),relative viability (Bemcentinib + AZD7762; first compound 0.04 µM),relative viability (Bemcentinib + AZD7762; first compound 0.1265 µM),relative viability (Bemcentinib + AZD7762; first compound 0.4 µM),relative viability (Bemcentinib + AZD7762; first compound 1.265 µM),relative viability (Bemcentinib + AZD7762; first compound 4 µM),relative viability ([1]; first compound 0.04 µM),relative viability ([1]; first compound 0.1265 µM),relative viability ([1]; first compound 0.4 µM),relative viability ([1]; first compound 1.265 µM),relative viability ([1]; first compound 4 µM),relative viability ([2]; first compound 1 µM),relative viability ([2]; first compound 3.162 µM),relative viability ([2]; first compound 10 µM),relative viability ([2]; first compound 31.62 µM),relative viability ([2]; first compound 100 µM)
NCI-H1355,0.407,0.414,0.462,0.405,0.509,0.742,0.742,0.78,0.834,0.576,0.396,0.403,0.419,0.415,0.437,0.195,0.363,0.311,0.257,0.337
NCI-H1395,–,1.12,1.02,1.2,1.11,–,0.404,0.425,0.406,0.366,–,0.621,0.645,0.64,0.631,–,0.553,0.562,0.465,0.484
NCI-H1437,0.539,0.683,0.486,0.455,0.644,1.09,1.12,1.13,1.15,1.09,0.322,0.373,0.298,0.226,0.324,0.371,0.406,0.44,0.249,0.222
NCI-H1651,0.85,0.831,0.788,0.951,0.852,0.506,0.504,0.491,0.536,0.455,0.528,0.542,0.528,0.576,0.512,0.687,0.541,0.66,0.365,0.528
NCI-H1666,0.972,0.954,0.926,1.01,0.925,0.95,0.91,0.867,0.768,0.704,0.656,0.645,0.675,0.683,0.672,0.351,0.296,0.277,0.238,0.293
NCI-H1734,0.679,0.743,0.739,0.625,0.701,0.516,0.611,0.613,0.518,0.441,0.345,0.32,0.349,0.345,0.345,0.494,0.491,0.481,0.381,0.434
NCI-H1755,0.765,0.817,0.818,0.768,0.813,0.47,0.704,0.439,0.434,0.469,0.43,0.462,0.425,0.479,0.439,0.296,0.451,0.395,0.307,0.39
NCI-H1792,0.461,0.422,0.549,0.569,0.43,0.577,0.888,0.681,0.442,0.669,0.711,0.714,0.675,0.721,0.664,0.156,0.244,0.205,0.178,0.217
NCI-H1793,0.442,0.436,0.421,0.442,0.365,0.617,0.498,0.407,0.19,0.23,0.331,0.369,0.306,0.26,0.322,0.251,0.388,0.436,0.341,0.323
NCI-H1915,0.291,0.29,0.283,0.293,0.305,0.671,0.695,0.701,0.726,0.652,0.532,0.506,0.521,0.512,0.527,0.763,0.902,0.775,–,0.838
NCI-H1944,0.399,0.43,0.463,0.431,0.468,0.645,0.563,0.488,0.452,0.32,0.324,0.379,0.304,0.327,0.329,0.314,0.341,0.307,–,0.308
NCI-H1975,0.282,0.399,0.365,0.36,0.344,0.691,0.702,0.67,0.687,0.656,0.561,0.827,0.665,0.567,0.746,0.232,0.18,0.187,0.193,0.18
NCI-H1993,0.71,0.394,0.467,0.493,0.482,0.778,1.01,1.06,0.9,0.658,0.62,0.723,0.718,0.651,0.708,–,0.747,0.8,0.673,0.846
NCI-H2085,0.538,0.667,0.526,0.444,0.516,0.956,1.03,0.863,0.767,0.748,0.456,0.449,0.44,0.46,0.47,0.487,0.498,0.444,0.43,0.404
NCI-H2087,0.192,0.193,0.201,0.211,0.206,1.4,1.41,1.42,1.49,1.47,0.235,0.24,0.228,0.273,0.198,0.74,0.872,0.894,0.453,0.757
NCI-H2126,0.639,0.583,0.588,0.581,0.585,1.05,1.01,0.999,1.09,1.09,0.342,0.334,0.364,0.385,0.357,0.341,0.482,0.405,0.427,0.376
NCI-H2170,0.94,0.967,0.92,0.968,0.936,0.839,1.07,0.902,0.93,0.925,0.394,0.415,0.395,0.422,0.407,0.271,0.302,0.274,0.278,0.33
NCI-H2347,0.254,0.312,0.232,0.307,0.302,0.684,0.792,0.728,0.67,0.652,0.438,0.467,0.385,0.443,0.443,0.754,0.145,0.753,0.408,0.6
NCI-H2405,0.6,0.732,0.621,0.7,0.722,0.744,0.875,0.887,0.819,0.605,0.555,0.549,0.528,0.59,0.583,–,0.39,0.427,0.403,0.292
NCI-H3122,0.25,0.248,0.214,0.252,0.244,0.682,1.04,1.03,1.12,1.06,0.148,0.192,0.155,0.192,0.201,0.628,0.596,0.577,0.563,0.732
PC-3 [JPC-3],0.664,0.775,0.725,0.632,0.636,0.799,0.899,0.828,0.847,0.812,0.548,0.577,0.522,0.592,0.551,0.547,0.757,0.629,0.569,0.597
PC-14,0.857,0.783,0.947,0.879,0.892,0.262,0.419,0.328,0.334,0.292,0.588,0.51,0.737,0.596,0.485,0.764,0.674,0.645,0.495,0.563
RERF-LC-KJ,0.953,0.968,0.863,0.818,0.96,0.996,0.957,0.967,0.982,0.888,0.964,1.07,1.05,1.24,1.18,0.535,0.397,0.503,0.451,0.432
